{
  "source": "ChEMBL document CHEMBL1125187",
  "about": "“3-Thienyl- and 3-furylaminobutyric acids. Synthesis and binding GABAB receptor studies” (J Med Chem, 1991)",
  "key": {"[1]": {"target": "GABA B receptor (Rattus norvegicus, UniProt O88871+Q9Z0U4)", "sequence (Q9Z0U4 whole entry)": "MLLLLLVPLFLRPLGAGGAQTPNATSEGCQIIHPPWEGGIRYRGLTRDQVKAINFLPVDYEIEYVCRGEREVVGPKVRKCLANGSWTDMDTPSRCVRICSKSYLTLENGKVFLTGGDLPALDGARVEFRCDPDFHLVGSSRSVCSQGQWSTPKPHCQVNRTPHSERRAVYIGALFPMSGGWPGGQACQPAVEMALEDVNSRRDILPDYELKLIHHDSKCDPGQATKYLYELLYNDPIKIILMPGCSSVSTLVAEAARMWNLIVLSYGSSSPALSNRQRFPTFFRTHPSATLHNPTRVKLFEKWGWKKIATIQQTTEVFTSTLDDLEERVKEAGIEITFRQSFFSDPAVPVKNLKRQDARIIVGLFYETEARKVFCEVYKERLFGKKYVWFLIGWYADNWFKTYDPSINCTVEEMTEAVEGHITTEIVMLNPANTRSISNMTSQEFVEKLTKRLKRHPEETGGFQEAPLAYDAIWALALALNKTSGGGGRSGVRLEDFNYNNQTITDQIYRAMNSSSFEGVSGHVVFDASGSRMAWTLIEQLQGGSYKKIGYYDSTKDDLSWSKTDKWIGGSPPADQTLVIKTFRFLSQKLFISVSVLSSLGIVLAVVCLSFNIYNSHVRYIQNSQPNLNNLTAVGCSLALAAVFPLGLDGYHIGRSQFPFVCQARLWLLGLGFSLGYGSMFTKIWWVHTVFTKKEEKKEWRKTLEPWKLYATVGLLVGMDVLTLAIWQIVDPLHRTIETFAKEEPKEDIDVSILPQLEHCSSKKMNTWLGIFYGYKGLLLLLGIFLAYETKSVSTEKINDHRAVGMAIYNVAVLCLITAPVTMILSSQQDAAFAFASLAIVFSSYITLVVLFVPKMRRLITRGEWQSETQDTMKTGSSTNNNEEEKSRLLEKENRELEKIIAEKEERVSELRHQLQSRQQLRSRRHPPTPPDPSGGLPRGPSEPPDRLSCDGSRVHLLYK", "sequence (O88871 whole entry)": "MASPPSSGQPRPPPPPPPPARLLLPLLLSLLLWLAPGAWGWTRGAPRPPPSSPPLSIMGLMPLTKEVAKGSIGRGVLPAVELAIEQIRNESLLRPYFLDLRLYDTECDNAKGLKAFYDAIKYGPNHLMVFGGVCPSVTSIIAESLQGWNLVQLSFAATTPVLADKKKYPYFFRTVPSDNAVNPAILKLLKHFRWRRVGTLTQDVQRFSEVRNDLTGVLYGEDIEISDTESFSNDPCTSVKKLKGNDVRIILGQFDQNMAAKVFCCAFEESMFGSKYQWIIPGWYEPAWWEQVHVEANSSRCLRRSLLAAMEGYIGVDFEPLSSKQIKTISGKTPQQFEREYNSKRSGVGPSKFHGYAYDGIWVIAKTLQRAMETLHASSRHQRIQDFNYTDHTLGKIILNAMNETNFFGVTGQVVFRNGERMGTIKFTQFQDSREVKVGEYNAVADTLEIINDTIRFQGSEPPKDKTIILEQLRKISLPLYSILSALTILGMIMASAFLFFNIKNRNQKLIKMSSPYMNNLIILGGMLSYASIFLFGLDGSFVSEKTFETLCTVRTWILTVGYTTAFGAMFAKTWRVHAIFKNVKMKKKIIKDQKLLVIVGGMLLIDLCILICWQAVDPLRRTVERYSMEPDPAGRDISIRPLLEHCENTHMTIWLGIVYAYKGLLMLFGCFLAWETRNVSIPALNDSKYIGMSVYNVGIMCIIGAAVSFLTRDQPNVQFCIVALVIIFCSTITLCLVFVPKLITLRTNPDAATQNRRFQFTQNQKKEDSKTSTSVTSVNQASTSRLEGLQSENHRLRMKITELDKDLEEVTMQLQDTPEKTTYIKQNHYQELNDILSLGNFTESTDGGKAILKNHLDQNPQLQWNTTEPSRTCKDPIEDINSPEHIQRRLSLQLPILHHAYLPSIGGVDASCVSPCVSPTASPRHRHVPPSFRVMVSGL", "test": "Inhibition of [3H]baclofen binding to rat gamma-aminobutyric acid type B receptor.", "assay_type": "protein-complex assay"}, "[2]": {"target": "GABA-A receptor; anion channel", "test": "Inhibition of [3H]muscimol binding to gamma-aminobutyric-acid A (GABA-A) receptor", "assay_type": "protein-complex assay, Rattus norvegicus"}},
  "data": [
    {"smiles": "NCC(CC(=O)O)c1ccc(Br)s1", "note": "(centres undefined)", "values": [
      {"measurement": "IC50", "setting": "[1]", "value": 1.86, "unit": "µM"},
      {"measurement": "IC50", "setting": "[2]", "value": "> 100", "unit": "µM"}
    ]},
    {"smiles": "NCC(CC(=O)O)c1ccc(Cl)s1", "note": "(centres undefined) [4-AMINO-3- (5-CHLOROTHIEN-2-YL)BUTANOIC ACID]", "values": [
      {"measurement": "IC50", "setting": "[1]", "value": 0.61, "unit": "µM"},
      {"measurement": "IC50", "setting": "[2]", "value": "> 100", "unit": "µM"}
    ]},
    {"smiles": "NCC(CC(=O)O)c1cc(Cl)cs1", "note": "(centres undefined)", "values": [
      {"measurement": "IC50", "setting": "[1]", "value": 45.3, "unit": "µM"},
      {"measurement": "IC50", "setting": "[2]", "value": "> 100", "unit": "µM"}
    ]},
    {"smiles": "Cc1ccc(C(CN)CC(=O)O)s1", "note": "(centres undefined)", "values": [
      {"measurement": "IC50", "setting": "[1]", "value": 1.34, "unit": "µM"},
      {"measurement": "IC50", "setting": "[2]", "value": "> 100", "unit": "µM"}
    ]},
    {"smiles": "NCC(CC(=O)O)c1ccccc1Cl", "note": "(centres undefined)", "values": [
      {"measurement": "IC50", "setting": "[1]", "value": 0.8, "unit": "µM"}
    ]},
    {"smiles": "NCC(CC(=O)O)c1ccc(O)cc1", "note": "(centres undefined)", "values": [
      {"measurement": "IC50", "setting": "[1]", "value": "> 100", "unit": "µM"}
    ]},
    {"smiles": "NCC(CC(=O)O)c1cccc(Cl)c1", "note": "(centres undefined)", "values": [
      {"measurement": "IC50", "setting": "[1]", "value": 20, "unit": "µM"}
    ]},
    {"smiles": "Cc1ccc(C(CN)CC(=O)O)o1", "note": "(centres undefined)", "values": [
      {"measurement": "IC50", "setting": "[1]", "value": "> 100", "unit": "µM"},
      {"measurement": "IC50", "setting": "[2]", "value": "> 100", "unit": "µM"}
    ]},
    {"smiles": "NCC(CC(=O)O)c1cccs1", "note": "(centres undefined)", "values": [
      {"measurement": "IC50", "setting": "[1]", "value": 9.72, "unit": "µM"},
      {"measurement": "IC50", "setting": "[2]", "value": "> 100", "unit": "µM"}
    ]},
    {"smiles": "NCC(CC(=O)O)c1cc(Br)cs1", "note": "(centres undefined)", "values": [
      {"measurement": "IC50", "setting": "[1]", "value": 39.1, "unit": "µM"},
      {"measurement": "IC50", "setting": "[2]", "value": "> 100", "unit": "µM"}
    ]},
    {"smiles": "Cc1ccsc1C(CN)CC(=O)O", "note": "(centres undefined)", "values": [
      {"measurement": "IC50", "setting": "[1]", "value": 124, "unit": "µM"},
      {"measurement": "IC50", "setting": "[2]", "value": "> 100", "unit": "µM"}
    ]},
    {"smiles": "NC[C@H](CC(=O)O)c1ccc(F)cc1", "values": [
      {"measurement": "IC50", "setting": "[1]", "value": 1.33, "unit": "µM"}
    ]},
    {"smiles": "NCC(CC(=O)O)c1ccsc1", "note": "(centres undefined)", "values": [
      {"measurement": "IC50", "setting": "[1]", "value": 20.9, "unit": "µM"},
      {"measurement": "IC50", "setting": "[2]", "value": "> 100", "unit": "µM"}
    ]},
    {"smiles": "NCC(CC(=O)O)c1ccco1", "note": "(centres undefined)", "values": [
      {"measurement": "IC50", "setting": "[1]", "value": "> 100", "unit": "µM"},
      {"measurement": "IC50", "setting": "[2]", "value": "> 100", "unit": "µM"}
    ]}
  ]
}
